Counter-ions that a name gives are not always drawn. Like-named read-outs stand apart in the source and are kept apart here.
Test system: Phytophthora infestans
Assay type: in vivo
Settings: tomato plants
[1] = protective, 3 days after inoculation, 0.5 ppm a.i.
[2] = protective, 3 days after inoculation, 12.5 ppm a.i.
[3] = protective, 3 days after inoculation, 0.25 ppm a.i.

Row | Compound | Efficacy in % found [2] [%] | Efficacy in % found [3] [%] | further results
1 | COc1ccc(C(=CC(=O)N2CCOCC2)c2ccc(Cl)cc2)cc1OC [dimethomorph] | – | – | Efficacy in % found [1]: 35%
2 | N#Cc1c(Cl)c(Cl)c(Cl)c(C#N)c1Cl [chlorothalonil] | 19 | – | –
3 | O=C(NCc1ncc(C(F)(F)F)cc1Cl)c1c(Cl)cccc1Cl [fluopicolide] | – | 4 | –
4 | OP(O)O [phosporous acid] | 33 | – | –
5 | [Cl-].[Cu+2].[Cu+2].[OH-].[OH-].[OH-] [copper oxychloride] | 58 | – | –
6 | CCCCCCNc1cccc(CON=C(c2ccccc2)c2nnnn2C)n1 [N-hexyl-6-[({[(1-methyl-1H-tetrazol-5-yl)(phenyl)methylene]amino}oxy)-methyl]pyridin-2-amine] | – | 48 | Efficacy in % found [1]: 63%
7 | fosetyl-aluminium | 42 | – | –
8 | CCC(C)(NC(=O)c1cc(Cl)c(C)c(Cl)c1)C(=O)CCl (stereo not drawn) [zoxamide] | – | 18 | –
9 | CCCCCNc1cccc(CON=C(c2ccccc2)c2nnnn2C)n1 [6-[({[(1-methyl-1H-tetrazol-5-yl)(phenyl)methylene]amino}oxy)methyl]-N-pentylpyridin-2-amine] | – | – | Efficacy in % found (protective spray, evaluated 3 days after inoculation, application rate cell empty): 69%
10 | CCCOC(=O)NCCCN(C)C [propamocarb-HCl] | – | – | Efficacy in % found (protective, 3 days after inoculation, 25 ppm a.i.): 24%
11 | CC(C)[C@H](NC(=O)O)C(=O)N[C@H](C)c1nc2ccc(F)cc2s1 [benthiavalicarb] | – | 16 | –
